# According to PMC6934184, “Selective DNA-PKcs inhibition extends the therapeutic index of localized radiotherapy and chemotherapy” (The Journal of Clinical Investigation, 2019):
# Target: T1, PRKCZ (PKC zeta) (Homo sapiens, UniProt Q05513)
# T1 construct: purchased Thermo Fisher Scientific (Life Technologies) SelectScreen
# Assay: SelectScreen Z'LYTE
# Type: biochemical
# Procedure, shortened: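 SelectScreen broad panel; activity (Z'LYTE, Adapta) plus binding formats. ATP: Km app for CSF1R Z'LYTE; 10 for CAMK1 Adapta. Readout = % per kinase.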
# T1 sequence (Q05513 whole entry): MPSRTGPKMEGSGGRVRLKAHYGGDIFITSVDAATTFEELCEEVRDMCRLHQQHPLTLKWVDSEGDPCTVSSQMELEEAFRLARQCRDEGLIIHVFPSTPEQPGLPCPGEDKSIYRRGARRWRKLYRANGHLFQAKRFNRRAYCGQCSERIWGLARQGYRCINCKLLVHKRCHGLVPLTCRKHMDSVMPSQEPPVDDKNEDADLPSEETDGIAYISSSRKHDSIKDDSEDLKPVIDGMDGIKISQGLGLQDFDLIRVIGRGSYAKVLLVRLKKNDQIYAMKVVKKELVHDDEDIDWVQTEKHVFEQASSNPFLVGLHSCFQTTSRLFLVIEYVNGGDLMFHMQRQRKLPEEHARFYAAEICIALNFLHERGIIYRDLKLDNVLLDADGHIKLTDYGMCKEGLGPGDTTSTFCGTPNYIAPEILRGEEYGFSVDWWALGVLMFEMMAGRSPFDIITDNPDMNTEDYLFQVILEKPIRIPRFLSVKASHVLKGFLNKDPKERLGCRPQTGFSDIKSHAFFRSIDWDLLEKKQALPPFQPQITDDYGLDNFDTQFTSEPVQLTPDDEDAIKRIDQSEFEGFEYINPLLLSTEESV
compound,measurement,value
CN(C(=O)CN1CCOCC1)c1ccc2sc3c(-c4cccc5c(=O)cc(N6CC7CCC(C6)O7)oc45)cccc3c2c1 [NU5455],inhibition at 1 µM,4.7%
